# Assay results taken from patent US20220008445A1, “METHODS, COMPOSITIONS, AND KITS FOR TREATING OCULAR DISEASES” (ELOXX PHARMACEUTICALS, priority 2018, published 2022).
# Columns and labels:
# [1] = test system: nonsense mutation R262X in the Oca2 gene; test: Read-through after intravitreal injection in albino mice (melanin production); format: in vivo, SJL/J mice; conditions: for in vivo read-through as compared to gentamicin: injection to the posterior segment (back of eye); for melanin production in the eye: intravitreal injection, FIGS. 20-21
# Description: Read-through activity following intravitreal injection of aminoglycosides was evaluated in animal models.
# Albino mice (SJL/J mice) harbor the nonsense mutation R262X in the Oca2 gene resulting in an absence of melanin production in melanocytes. This model provides an initial evaluation of compound availability to the back of the eye when administered by intravitreal injection—higher concentrations of melanin correspond to greater read-through activity.
# NB122, NB124, NB124-MeS, NB84, NB118, NB127, NB128, and NB157 were evaluated for read-through activity following intravitreal injection into SJL/J mice. FIGS. 20-21 show intravitreal read-through for each compound relative to gentamicin.
# [2] = test system: USH1F PCDH15 mutation R3X; test: Plasmid-based dual-luciferase read-through assay in HeLa cells, USH1F; format: cell-based; conditions: for read-through of the USH1F mutation (in words): FIG. 8, FIG. 9; for dose-dependence of read-through induction, USH1F: FIG. 11
# Description: (§1) An in vitro assay was then performed to determine if the same dose-dependent suppression could be achieved using other aminoglycosides. This in vitro assay utilized a plasmid-based, dual-luciferase approach. Short sequences that include Usher syndrome nonsense mutations were cloned into the linker region between Renilla and Firefly luciferase reporters, and plasmids were transiently transfected into HeLa cells to evaluate compound read-through. This model permits an early assessment of read-through potential against disease-specific mutations. Read-through activity was evaluated using USH2A and USH1F mutations.
# (§2) NB122, NB124, NB84, NB127, NB118, NB128, NB124-MeS, and NB157 were evaluated for their ability to induce read-through on the USH2A mutation R626X and the USH1F PCDH15 mutation R3X.
# [3] = test system: USH2A mutation R626X; test: Plasmid-based dual-luciferase read-through assay in HeLa cells, USH2A; format: cell-based; conditions: for read-through of the USH2A mutation (in words): FIG. 7, FIG. 9; for dose-dependence of read-through induction, USH2A: FIG. 10
# Description: as §1, §2
# [4] = test system: retina; conditions: for tolerability in gross ophthalmological examination and ERG compared to gentamicin: in vivo
# Description: Biocompatibility and pharmacokinetic/pharmacodynamic profiles were evaluated for the aminoglycosides NB30, NB54/Compound 37, NB84/ELX-03, NB122/ELX-01, NB124/ELX-02, NB127/ELX-04, NB118/ELX-05, and NB128/ELX-06 in patient-derived cell lines and rodent animal models.
# NB122 was well-tolerated compared to gentamicin in gross ophthalmological examination and ERG when administered by intravitreal injection.
# [5] = test system: R213X nonsense mutation in human TP53; test: Protein Based Read-through Assay in DMS114 cells; format: cell-based; conditions: Western blot and immunofluorescence
# Description: Protein Based Read-through Assay. NB122, NB124, NB84, NB118, and NB128 were evaluated for their protein-based read-through potential in DMS114 cells, which harbor a native R213X nonsense mutation in human TP53 as depicted in the scheme shown in FIG. 12. […] A high-throughput immunofluorescence assay measuring p53 localized at the nucleus is shown in FIG. 15 with dose-dependence studies for NB84. Lastly, FIG. 16 provides full dose response curves for NB122, NB124, NB84, NB118, and NB128 with the error bars representing a standard deviation (SD).
# [6] = test system: healthy New Zealand white rabbits; test: Single-dose intravitreal tolerability, ERG and histology; format: in vivo; conditions: rabbit, in vivo
# Description: Biocompatibility and pharmacokinetic/pharmacodynamic profiles were then evaluated for intravitreal injection of NB118 versus gentamicin. Single-dose tolerability was screened in healthy New Zealand white rabbits and evaluated based on ERG and histology. Dark-adapted oscillatory potential and photopic b-wave amplitudes were measured pre- and nine-days post a single 300 μg or 600 μg injection of aminoglycoside as shown in FIG. 2.
# Results were confirmed by a veterinary pathologist.
# [7] = test system: retina; conditions: have been reported; cited from earlier work
# [8] = test system: USH1C nonsense mutation R155X; test: Usher protein expression, USH1C nonsense mutation; format: cell-based; conditions: FIG. 17
# Description: The ability of these compounds to induce protein expression of nonsense mutations associated with Usher syndrome was evaluated using USH1C nonsense mutations.
structure (smiles),measurement,setting,value
CC(N)C1OC(OC2C(O)C(N)CC(N)C2OC2OC(CO)C(O)C(O)C2N)C(O)C1O (stereo not shown) [NB118],in vivo read-through as compared to gentamicin,[1],significant read-through
same,melanin production in the eye,[1],dose-dependent increase
same,read-through of the USH1F mutation (in words),[2],significant read-through
same,"dose-dependence of read-through induction, USH1F",[2],dose-dependence
same,read-through of the USH2A mutation (in words),[3],significant read-through
same,"dose-dependence of read-through induction, USH2A",[3],dose-dependence
same,"in vivo ocular tolerance, intravitreal doses",[4],up to 600 μg/mL
same,tolerability in gross ophthalmological examination and ERG compared to gentamicin,[4],well-tolerated
same,nonsense mutation read-through as measured by protein expression (full length p53),[5],dose-dependent
same,"anatomic changes in retina, H&E stained sections",[6],did not produce adverse anatomic changes
same,impact on ERG amplitudes or implicit times,[6],minimal to no impact
CC(N)C1OC(OC2C(O)C(NC(=O)C(O)CCN)CC(N)C2OC2OC(C(C)O)C(O)C(O)C2N)C(O)C1O (stereo not shown) [NB128],in vivo read-through as compared to gentamicin,[1],significant read-through
same,melanin production in the eye,[1],dose-dependent increase
same,read-through of the USH1F mutation (in words),[2],significant read-through
same,"dose-dependence of read-through induction, USH1F",[2],dose-dependence
same,read-through of the USH2A mutation (in words),[3],significant read-through
same,"dose-dependence of read-through induction, USH2A",[3],dose-dependence
same,tolerability in gross ophthalmological examination and ERG compared to gentamicin,[4],well-tolerated
same,nonsense mutation read-through as measured by protein expression (full length p53),[5],dose-dependent
"CN[C@@H]1[C@@H](O)[C@@H](O[C@@H]2[C@@H](O)[C@H](O[C@H]3O[C@H]([C@@H](C)O)[C@@H](O)[C@H](O)[C@H]3N)[C@@H](N)C[C@H]2N)OC[C@]1(C)O [Compound G418, G418]",reported retinal toxicities,[7],dose-limiting retinal toxicities
CC(N)C1OC(OC2C(O)C(NC(=O)C(O)CCN)CC(N)C2OC2OC(CO)C(O)C(O)C2N)C(O)C1O (stereo not shown) [NB122],in vivo read-through as compared to gentamicin,[1],significant read-through
same,melanin production in the eye,[1],dose-dependent increase
same,"dose-dependence of read-through induction, USH1F",[2],dose-dependence
same,R3X read-through rate,[2]; R3X,2.7%
same,increase over native read-through,[2]; R3X,2.5 fold
same,protein expression versus gentamicin and vehicle control,[8],increased protein expression
same,"dose-dependence of read-through induction, USH2A",[3],dose-dependence
same,"in vivo ocular tolerance, intravitreal doses",[4],up to 600 μg/mL
same,tolerability in gross ophthalmological examination and ERG compared to gentamicin,[4],well-tolerated
same,nonsense mutation read-through as measured by protein expression (full length p53),[5],dose-dependent
CC(N)C1OC(OC2C(O)C(NS(C)(=O)=O)CC(N)C2OC2OC(C(C)O)C(O)C(O)C2N)C(O)C1O (stereo not shown) [NB124-MeS],in vivo read-through as compared to gentamicin,[1],significant read-through
same,melanin production in the eye,[1],dose-dependent increase
same,read-through of the USH1F mutation (in words),[2],significant read-through
same,read-through of the USH2A mutation (in words),[3],significant read-through
same,tolerability in gross ophthalmological examination and ERG compared to gentamicin,[4],well-tolerated
CCCNC1CC(N)C(OC2OC(C(C)O)C(O)C(O)C2N)C(OC2OC(CN)C(O)C2O)C1O (stereo not shown) [NB147],in vivo read-through as compared to gentamicin,[1],significant read-through
same,tolerability in gross ophthalmological examination and ERG compared to gentamicin,[4],well-tolerated
C[C@H](N)[C@H]1O[C@@H](O[C@@H]2C(O)[C@H](N)CC(N)[C@H]2O[C@H]2OC([C@H](O)CO)[C@@H](O)[C@H](O)C2N)C(O)[C@H]1O (stereo partly shown) [NB157],melanin production in the eye,[1],dose-dependent increase
same,read-through of the USH1F mutation (in words),[2],significant read-through
same,read-through of the USH2A mutation (in words),[3],significant read-through
